“Also recorded” adds a separate entry of the source.
What was measured:
XCL-1 hiPSC CRBN Mock = assay: LPM differentiation assay (FOXF1 high content imaging), XCL-1 CRBN Mock clone; assay type: cell-based; conditions: Homo sapiens, 48 h, % FOXF1+ cells after 2 d in APEL2+GSKi, read-out: IC50 (±SEM) in LPM differentiation assay
Method: On the day after seeding, the medium was replaced with 100 µL/well of mTeSR-1 (control) or APEL2 + GSKi containing either DMSO or diluted compounds (for a final DMSO concentration of 0.2%). The same conditions were replenished the following day for a total of 2 d of differentiation, and the following day (3 d after seeding), the medium was aspirated, and hiPSCs were fixed in 10% NBF for 15 min at room temperature.
(§1) Immunofluorescence staining was carried out by fixing/permeabilizing cells overnight in blocking buffer containing 3% BSA (Sigma) in DPBS-T, which contains DPBS + Ca^2+//Mg^2+ with 0.3% Triton-X100 (Sigma). Fixed and permeabilized cells were incubated in primary antibodies diluted (as noted in Table 1) in antibody buffer, consisting of 1% BSA in DPBS-T, overnight at 4 °C.
(§2) Cells were washed in blocking buffer for >6 hours at 4 °C and subsequently incubated in secondary antibody diluted in antibody buffer overnight at 4 °C. Secondary antibodies were washed out in antibody buffer for >4 h at 4 °C, and hiPSCs were counterstained with DAPI (Fisher) at 10 µg/mL in DPBS-T for 2 h. hiPSCs were washed in DPBS-T for >2 h at 4 °C, and immediately before imaging, the DPBS-T was replaced with DPBS. […] Chemical dose-response experiments and experiments examining the time-course of marker expression during LPM differentiation were imaged at 10X magnification using the Cellomics ArrayScan or CellInsight Cx7 LZR High Content Screening Platform and HCS Studio Cell Analysis Software (Thermo Fisher). An artificial threshold was uniformly applied to all images to generate the percentage of DAPI+ nuclei that stained positively for FOXF1 or NANOG. Thresholding for FOXF1 and T was performed relative to undiffer-entiated hiPSCs, and thresholding for SALL4 and OCT4 was performed relative to a non-expressing cell type (human primary endothelial cells). Settings for image acquisition and processing were uniformly applied between XCL-1 clones. […] Experiments were repeated in quadruplicate unless otherwise stated, and data are presented as mean ± SEM. Nonlinear regression analysis was performed using the 4-parameter [inhibitor]-vs-response curve fitting algorithm in Prism (GraphPad).

XCL-1 hiPSC CRBN KO/KI = assay: LPM differentiation assay (FOXF1 high content imaging), XCL-1 CRBN KO/KI clone; assay type: cell-based, human; conditions: for IC50: Homo sapiens, 48 h, XCL-1 CRBN KO/KI, % FOXF1+ cells after 2 d in APEL2+GSKi, read-out: IC50 (±SEM) in LPM differentiation assay
Method: On the day after seeding, the medium was replaced with 100 µL/well of mTeSR-1 (control) or APEL2 + GSKi containing either DMSO or diluted compounds (for a final DMSO concentration of 0.2%). The same conditions were replenished the following day for a total of 2 d of differentiation, and the following day (3 d after seeding), the medium was aspirated, and hiPSCs were fixed in 10% NBF for 15 min at room temperature. For time-course experiments, cells were fixed at the specified intervals after the start of LPM differentiation.
as §1
Cells were washed in blocking buffer for >6 hours at 4 °C and subsequently incubated in secondary antibody diluted in antibody buffer overnight at 4 °C. Secondary antibodies were washed out in antibody buffer for >4 h at 4 °C, and hiPSCs were counterstained with DAPI (Fisher) at 10 µg/mL in DPBS-T for 2 h. hiPSCs were washed in DPBS-T for >2 h at 4 °C, and immediately before imaging, the DPBS-T was replaced with DPBS. Initial characterization of LPM differentiation by immunofluorescence was carried out using the A1R confocal microscope (Nikon) equipped with 10X objective, and automated object analysis was carried out using NIS Elements v5 software (Nikon). Chemical dose-response experiments and experiments examining the time-course of marker expression during LPM differentiation were imaged at 10X magnification using the Cellomics ArrayScan or CellInsight Cx7 LZR High Content Screening Platform and HCS Studio Cell Analysis Software (Thermo Fisher). An artificial threshold was uniformly applied to all images to generate the percentage of DAPI+ nuclei that stained positively for FOXF1 or NANOG. Thresholding for FOXF1 and T was performed relative to undiffer-entiated hiPSCs, and thresholding for SALL4 and OCT4 was performed relative to a non-expressing cell type (human primary endothelial cells). Settings for image acquisition and processing were uniformly applied between XCL-1 clones. The capacity of all XCL-1 clones and Gibco hiPSCs to undergo LPM differentiation in the high content format was assessed by FOXF1 and NANOG immunostaining. […] Experiments were repeated in quadruplicate unless otherwise stated, and data are presented as mean ± SEM. Nonlinear regression analysis was performed using the 4-parameter [inhibitor]-vs-response curve fitting algorithm in Prism (GraphPad).
Using CRISPR/Cas9-mediated gene editing, both CRBN alleles were knocked out in XCL-1 hiPSCs cells, followed by the insertion at the AAVS1 locus of a transgene encoding human CRBN with E377V and V388I mutations (clone hereafter referred to as CRBN KO/KI).

SALL4 = molecular target: T1, SALL4 (Homo sapiens, UniProt Q96SW2+Q9UJQ4); assay: SALL4 nuclear protein expression (MFI) by high content imaging, Gibco hiPSCs; assay type: cell-based
T1 construct: Unmodified Gibco hiPSCs were either differentiated in APEL2 + GSKi or maintained in mTeSR1, and SALL4 nuclear protein expression was monitored; endogenous in cells; host or cells: Gibco hiPSCs; XCL-1 SALL4 mock hiPSC clone
Source text: High content imaging analysis of SALL4 immunofluorescence with DAPI counterstaining in hiPSCs. […] Data represent the mean +/− SEM from 2 independent experiments.

Gibco hiPSCs [1] = assay: qRT-PCR of 3D fibrin cultures of hiPSCs during LPM differentiation; assay type: cell-based, human; conditions: thalidomide 20 µM, atRA 3 µM, 2 d in APEL2+GSKi, fibrin 3D
Method: For 3D differentiation studies, Gibco hiPSCs were encapsulated in fibrin at 2–4 × 10^6 cells/mL. hiPSCs were passaged with Versene (as described above) and were suspended as small clumps in a solution composed of a 1:4:5:10 dilution of 200 mM CaCl2 in DI water, 50 U/mL human thrombin (Sigma) in 0.1% cell culture BSA in DI water, DPBS, and hiPSC suspension in mTeSR1. The hiPSC suspension was mixed by pipetting, and 0.5 µL droplets of suspended hiPSCs were plated at the bottom of each well of a round-bottom sterile polypropylene plate. hiPSC suspensions were subsequently diluted 5-fold by pipetting up and down in each well with 2 µL of 10 mg/mL human fibrinogen (Sigma) in DPBS (sterile filtered prior to use). Fibrin clot formation proceeded for 10 minutes at room temperature prior to addition of mTeSR-1 and incubation under normal culture conditions overnight. […] For chondrogenic differentiation experiments, cells were cultured in APEL2 + GSKi for the described duration, followed by culture in ACF MesenCult chondrogenic differentiation medium (Stem Cell Technologies) for 17–20 days under normal culture conditions. […]
(black bars). Data are presented as mean ± SEM of the log2 fold change calculated from each sample relative to the ACTB housekeeper control and the DMSO control (normalized via the 2-ΔΔCT method) from three independent experiments. […]

hiPSCs = assay: Viability of hiPSCs in 3D culture (CellTiter Glo 3D); assay type: cell-based, human; conditions: 20 µM thalidomide or 3 µM atRA, 2 d LPM differentiation in 3D fibrin
Method: Supplementary Figure 10. Normalized viability of hiPSCs differentiated to LPM for 2 days in 3D […]
µM atRA. Data represent replicate wells in a single experiment, n=6, of hiPSCs that were cultured in fibrin for 1 day in mTeSR1 followed by 2 days of culture in APEL2+GSKi in the presence of either 0.1% […]
differentiation, the medium was replaced with CellTiter Glo 3D reagent (diluted 1:1 in DPBS), and luminescence was measured on a plate reader.
Normalized luminescence is reported as mean +/- SD of 6 replicate wells per condition. No statistical differences was observed via one-way ANOVA and Dunnett’s post-hoc test (α=0.05).
(1 picture or pasted object on this page, not shown here)

Gibco hiPSCs [2] = assay: LPM differentiation assay (FOXF1 high content imaging), Gibco hiPSCs; conditions: for IC50: Homo sapiens, 48 h, read-out: IC50 (±SEM) in LPM differentiation assay
Method: (§3) hiPSCs (Gibco or XCL-1 clones) were grown in mTeSR-1 on Matrigel, passaged into small clumps with Versene (4.5 min under normal culture conditions), counted as a single-cell suspension as described above, and seeded as small clumps at approximately 10,000 cells/well (30,000 cells/cm^2, ~15% confluence) in 100 µL mTeSR1 on Matrigel-coated µClear® 96-well plates (Greiner) for 1 d under normal culture conditions. On the day after seeding, the medium was replaced with 100 µL/well of mTeSR-1 (control) or APEL2 + GSKi containing either DMSO or diluted compounds (for a final DMSO concentration of 0.2%). The same conditions were replenished the following day for a total of 2 d of differentiation, and the following day (3 d after seeding), the medium was aspirated, and hiPSCs were fixed in 10% NBF for 15 min at room temperature.
as §1, §2

XCL-1 hiPSC SALL4 Mock = assay: LPM differentiation assay (FOXF1 high content imaging), XCL-1 SALL4 Mock clone; conditions: Homo sapiens, 48 h, read-out: IC50 (±SEM) in LPM differentiation assay
Method: as §3, §1, §2

T1 sequence (Q9UJQ4 whole entry): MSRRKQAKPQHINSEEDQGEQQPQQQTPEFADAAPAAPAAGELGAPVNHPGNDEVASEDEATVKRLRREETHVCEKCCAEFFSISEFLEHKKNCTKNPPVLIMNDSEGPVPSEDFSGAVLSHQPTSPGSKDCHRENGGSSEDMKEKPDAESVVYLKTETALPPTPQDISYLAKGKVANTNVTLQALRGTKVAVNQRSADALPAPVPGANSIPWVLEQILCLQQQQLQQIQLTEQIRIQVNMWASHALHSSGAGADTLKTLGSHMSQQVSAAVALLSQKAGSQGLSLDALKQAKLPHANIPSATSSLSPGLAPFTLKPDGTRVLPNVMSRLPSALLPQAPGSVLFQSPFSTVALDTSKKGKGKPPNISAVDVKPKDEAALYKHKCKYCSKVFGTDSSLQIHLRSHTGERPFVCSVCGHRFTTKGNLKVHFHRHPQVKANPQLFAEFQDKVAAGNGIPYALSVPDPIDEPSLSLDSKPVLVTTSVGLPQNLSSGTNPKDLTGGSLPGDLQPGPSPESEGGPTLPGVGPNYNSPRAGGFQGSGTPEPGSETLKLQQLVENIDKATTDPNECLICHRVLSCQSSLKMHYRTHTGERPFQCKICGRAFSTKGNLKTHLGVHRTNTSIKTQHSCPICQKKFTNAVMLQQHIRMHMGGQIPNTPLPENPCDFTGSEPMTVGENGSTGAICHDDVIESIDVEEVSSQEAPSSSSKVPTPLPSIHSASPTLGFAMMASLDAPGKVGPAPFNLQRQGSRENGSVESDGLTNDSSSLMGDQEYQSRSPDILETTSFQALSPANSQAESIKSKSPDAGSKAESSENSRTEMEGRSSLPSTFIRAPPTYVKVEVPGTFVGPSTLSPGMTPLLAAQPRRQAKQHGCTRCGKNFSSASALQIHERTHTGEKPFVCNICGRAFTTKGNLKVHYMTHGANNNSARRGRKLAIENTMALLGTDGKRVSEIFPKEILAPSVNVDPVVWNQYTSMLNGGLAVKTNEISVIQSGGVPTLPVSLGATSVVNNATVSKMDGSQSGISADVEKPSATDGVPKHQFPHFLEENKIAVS
T1 sequence (Q96SW2 whole entry): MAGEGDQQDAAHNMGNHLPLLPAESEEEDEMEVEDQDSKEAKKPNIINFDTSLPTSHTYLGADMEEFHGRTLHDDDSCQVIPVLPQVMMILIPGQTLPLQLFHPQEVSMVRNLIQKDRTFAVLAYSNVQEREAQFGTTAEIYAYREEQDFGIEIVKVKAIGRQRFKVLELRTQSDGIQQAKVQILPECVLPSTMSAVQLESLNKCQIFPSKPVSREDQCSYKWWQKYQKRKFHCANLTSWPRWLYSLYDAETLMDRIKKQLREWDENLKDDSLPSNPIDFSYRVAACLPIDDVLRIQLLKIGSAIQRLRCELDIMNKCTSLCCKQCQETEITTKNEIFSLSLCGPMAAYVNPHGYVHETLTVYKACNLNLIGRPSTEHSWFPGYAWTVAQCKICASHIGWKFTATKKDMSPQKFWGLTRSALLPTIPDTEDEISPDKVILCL
T1 sequence (Q16531 whole entry partner): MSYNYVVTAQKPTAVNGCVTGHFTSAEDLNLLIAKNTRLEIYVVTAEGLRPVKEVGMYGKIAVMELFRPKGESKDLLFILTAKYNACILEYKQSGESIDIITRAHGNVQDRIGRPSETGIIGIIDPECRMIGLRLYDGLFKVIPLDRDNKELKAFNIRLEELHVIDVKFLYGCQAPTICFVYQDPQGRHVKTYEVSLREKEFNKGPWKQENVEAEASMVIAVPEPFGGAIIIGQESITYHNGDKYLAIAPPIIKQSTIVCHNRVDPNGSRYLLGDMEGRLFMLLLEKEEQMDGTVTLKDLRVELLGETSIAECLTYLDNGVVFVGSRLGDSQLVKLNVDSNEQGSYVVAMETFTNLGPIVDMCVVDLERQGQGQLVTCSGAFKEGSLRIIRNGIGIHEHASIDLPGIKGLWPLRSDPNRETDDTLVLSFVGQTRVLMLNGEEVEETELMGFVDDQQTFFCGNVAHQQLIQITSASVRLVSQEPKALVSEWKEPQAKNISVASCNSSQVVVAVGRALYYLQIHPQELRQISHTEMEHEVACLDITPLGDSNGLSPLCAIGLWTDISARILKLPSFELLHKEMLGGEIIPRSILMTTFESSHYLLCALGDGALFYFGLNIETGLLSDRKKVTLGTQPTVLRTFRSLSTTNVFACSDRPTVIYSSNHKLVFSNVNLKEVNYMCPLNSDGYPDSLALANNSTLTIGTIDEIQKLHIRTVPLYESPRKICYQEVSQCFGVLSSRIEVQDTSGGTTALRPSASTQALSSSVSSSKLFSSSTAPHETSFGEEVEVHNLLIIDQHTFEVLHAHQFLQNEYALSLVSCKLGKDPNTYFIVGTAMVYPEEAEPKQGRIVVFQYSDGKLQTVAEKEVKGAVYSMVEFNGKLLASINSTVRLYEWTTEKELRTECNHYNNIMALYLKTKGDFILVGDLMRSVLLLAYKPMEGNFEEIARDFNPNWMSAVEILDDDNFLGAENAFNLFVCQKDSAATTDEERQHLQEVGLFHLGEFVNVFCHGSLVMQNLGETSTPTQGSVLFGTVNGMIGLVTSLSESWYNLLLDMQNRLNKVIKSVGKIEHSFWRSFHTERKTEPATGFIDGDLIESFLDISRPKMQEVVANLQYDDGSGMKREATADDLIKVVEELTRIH

IC50 (XCL-1 hiPSC CRBN KO/KI)	IC50 (Gibco hiPSCs [2])	effect on SALL4 MFI (SALL4; Gibco hiPSCs, 8 h of treatment, dose-response)	SMILES	IC50 (XCL-1 hiPSC CRBN Mock)	inhibition of LPM differentiation at the highest concentration tested (XCL-1 hiPSC CRBN KO/KI; 50 µM, CRBN KO/KI clone)	time-course of SALL4 MFI (SALL4; 20 µM, Gibco hiPSCs in mTeSR1 or APEL2+GSKi, 2, 8 and 24 h after dosing)	effect on marker gene expression in 3D LPM differentiation (Gibco hiPSCs [1])	normalized viability (CellTiter Glo 3D) versus DMSO (hiPSCs)	reduction of %FOXF1+ cells via high content imaging (Gibco hiPSCs [2]; thalidomide at 20 µM, atRA at 3 µM, during LPM differentiation)	IC50 (XCL-1 hiPSC SALL4 Mock)
> 50 µM	0.31 ± 0.19 µM		O=C1CCC(N2C(=O)c3ccccc3C2=O)C(=O)N1 (stereo not shown) [Thalidomide, thalidomide]	0.56 ± 0.45 µM	inhibited LPM differentiation albeit not to the same magnitude as control hiPSCs	rapid decline in SALL4 MFI 2 h after dosing	reduced FOXF1 and KDR expression	No statistical differences	30%	0.69 ± 0.5 µM
8.17 ± 5.1 µM	0.82 ± 0.78 µM	did not reduce SALL4 MFI	CC1=C(/C=C/C(C)=C/C=C/C(C)=C/C(=O)O)C(C)(C)CCC1 [atRA, all-trans retinoic acid]	2.7 ± 2 µM			reduced FOXF1 and KDR expression; also recorded: reduced the expression of TBXT and GATA4	No statistical differences		2.94 ± 1.2 µM
